Experimental data taken from patent US20120149647A1, “Methods for Assessing the Efficacy of Gemcitabine or Ara-C Treatment of Cancer Using Human Antigen R Levels” (priority 2009, published 2012).
“Also recorded” adds a separate entry of the source.

Key:
[1] = system: pancreatic cancer cell lines MiaPaca2, PL-5, and Hs766t; assay: Drug sensitivity assay (PicoGreen cell survival), HuR-overexpressing vs control lines; assay type: cell-based; conditions: PicoGreen cell survival after 5-7 days of drug, HuR vs empty vector/control cells
Source text: HuR cDNA sequence was cloned into the pcDNA 3.1. Zeo vector (Invitrogen) for stable transfection of pancreatic cancer cell lines MiaPaca2, PL-5, and Hs766t. Pooled cells remained under selection media containing Zeocin (Invitrogen) for several months after transfection. Mia.HuR, PL5.HuR, and Hs766t. HuR denote link overexpressing lines; Mia.EV, PL5.EV, and Hs766t denote empty vector or control lines. HuR and control siRNA sequences and transfection conditions were as described.
Mia.HuR, Mia.EV, Hs766t.HUR, Hs766t, and PL5.HuR, PL5.EV cells were seeded (1000 cells/well) in 96-well plates and treated with Etoposide, 5-Fluorouracil, Cis-platin, Staurosporine, Nocodazole, Colcemid, Ara-C (Sigma), and GEM (Gemzar, Eli-Lilly, Indianapolis, Ind.) for 6-7 days. After treatment, cells were washed with PBS and lysed with 100 μL of water/well; cell viability was quantified by staining of double-stranded DNA with QuantiT™ PicoGreen (Invitrogen) and analyzed with a TECAN SpectraFluor.

HuR in MiaPaCa2 cells = assay: HuR levels and localization by immunoblot and immunofluorescence; assay type: cell-based; conditions: parental MiaPaCa2 cells, GEM treatment
Method: Cells were plated on LabTek II™ Chamber slides (Fisher Scientific) and fixed in 3% paraformaldehyde (20 min, RT). Cells were washed with PBS and permeabilized using 0.5% Triton X-100/1% normal goat serum (Vector Laboratories) in PBS (15 min). After washes in 1% goat serum/PBS, cells were incubated (1:50 dilution, 1 hr, RT) with mouse anti-HuR (Santa Cruz) or anti-deoxycytidine kinase (dCK, Abnova) primary antibodies. After washes in PBS, cells were incubated for 1 hr with goat anti-mouse secondary antibody (1:400, Alexa Fluor 647, Molecular Probes). Nuclei were stained with DAPI and cells were evaluated under a Zeiss LSM-510 Confocal Laser Microscope.
Whole-cell, cytoplasmic, and nuclear lysates were prepared as described (Kuwano Y, et al. Mol Cell Biol 2008; 28:4562-75), and protein was size-fractionated by SDS-PAGE (10% acrylamide). Membranes were blocked for 1 h in 5% Milk/TBS-T and incubated overnight with monoclonal antibodies (Santa Cruz) recognizing HuR, dCK, the cytoplasmic marker α-Tubulin, or the nuclear marker hnRNP. Membranes were washed with TBS-T and incubated with secondary antibodies; and the resulting signals were visualized by chemiluminescence (Millipore). Total protein was visualized with Fast Green (USB).

[2] = system: HuR association with dCK mRNA in MiaPaCa2 cells; assay: RNP IP assay of HuR association with dCK mRNA; dCK protein and mRNA levels; assay type: cell-based; conditions: GEM treatment
Method: MiaPaCa2 cells were treated with 4 μM GEM and collected 48 hours later. For biotin pulldown analysis (Kuwano Y, et al. Mol Cell Biol 2008; […]), cytoplasmic extracts were isolated using, the NE-PER® Nuclear and Cytoplasmic Extraction Reagents Kit (Pierce Biotechnology) Probes for biotin pull-down analysis were synthesized as described (Kuwano Y, et al. Mol Cell Biol 2008; […] using the following PCR primers (sense and antisense, respectively) containing the T7 RNA polymerase promoter sequence […] (T7) (SEQ ID NO: 1): (T7)[…] (SEQ ID NO: 2) and […] (SEQ ID NO: 3) for dCK 3′UTR; (T7)[…] (SEQ ID NO: 4) and […] (SEQ ID NO: 5) for GAPD 3′UTR (Casolaro V, et al. J Allergy Clin Immunol 2008; 121:853-9 e4) (see supplemental figure for depiction of UTR positions). Biotinylated probes were synthesized using the MAXIscript T7 kit (Ambion) and Biotinylated dCTP (Enzo Life Sciences). For immunoprecipitation of endogenous RNA-protein complexes (RNP IP) from cytoplasmic (450 μg) extracts, reactions were carried out as described (Kuwano Y, et al. Mol Cell Biol 2008; 28:4562-75), using protein A Sepharose beads (Sigma) that were precoated with 30 μg of either mouse immunoglobulin G1 (IgG1; BD Biosciences), or anti-HuR antibodies. […] GAPDH and dCK transcripts were quantified by real-time PCR analysis using each specific primers: […] […]

[3] = system: Mia.EV and Mia.HuR cell lines; assay: Cell cycle analysis and apoptosis assay (flow cytometry); assay type: cell-based; conditions: 0.03 μM GEM, 48 h
Method: Mia.EV and Mia.HuR cell lines were either left untreated or treated with 0.03 μM GEM for 48 h. For cell cycle analysis, cells were then fixed in 100% ethanol, and stained with a propidium iodide solution containing RNAse A (Sigma Aldrich). For apoptosis assays, cells were resuspended at 10^6 cells/mL and incubated in Annexin V and Propidium Iodide, following the manufacturers' protocol (FITC Annexin V, BD Pharmigen). Both assays were analyzed by flow cytometry.

[4] = system: pancreatic ductal adenocarcinoma; assay: Overall survival of resected PDA patients receiving GEM, stratified by cytoplasmic HuR; assay type: in vivo; conditions: for adjusted hazard ratio of low to high HuR: adjusted for age, sex, Xeloda use and radiation therapy
Method: HuR immunostaining was performed on 32 resected PDA specimens from the Thomas Jefferson University pathology archives after IRB approval. All patients received GEM, alone or in combination with XELODA® (Capecitabine) (2 patients), radiation therapy (8 patients) or both (2 patients). The experienced pancreatic pathologist (A.K.W.) reviewed all cases in a blinded fashion and classified the tumors as well differentiated (n=6), moderately differentiated (n=22), or poorly differentiated […]. For each case, representative sections were selected for immunohistochemical analysis of HuR cytoplasmic and nuclear staining patterns, which were scored using the following scale: 0 for no staining, 1 for weak and/or focal (<10% of the cells) staining; 2 for moderate or strong, staining (10-50% of the cells); and 3 for moderate or strong staining (>50% of the cells). Combined scores 0 and 1 represented low expression, while combined scores 2 and 3 represented high expression.

[5] = patients receiving GEM, listed as gemcitabine

SMILES | sensitivity of HuR-overexpressing cell lines compared with control lines [1] | cytoplasmic HuR levels (HuR in MiaPaCa2 cells) | whole-cell HuR levels (HuR in MiaPaCa2 cells) | overall dCK protein or mRNA levels [2] | HuR's association with dCK mRNA ([2]; RNP IP) | sensitivity of HuR-overexpressing cell lines compared with control lines ([1]; listed as gemcitabine) | apoptosis of HuR overexpressing cells compared to control cells [3] | cell cycle distribution of HuR overexpressing cells compared to control cells [3] | hazard ratio of low to high HuR, univariate Cox regression ([4]; patients receiving GEM) | adjusted hazard ratio of low to high HuR ([4]; patients receiving GEM) | adjusted hazard ratio of low to high HuR [4, 5] | hazard ratio of low to high HuR, univariate Cox regression [4, 5] | increase in risk of death, low vs high HuR levels [4, 5] [fold] | median overall survival time for patients on GEM ([4]; resected PDA patients, GEM alone or combined) [days]
Nc1ccn([C@@H]2O[C@H](CO)[C@@H](O)[C@@H]2O)c(=O)n1 [Ara-C, Cytarabine] | selectively more sensitive; also recorded: hypersensitive |  |  |  |  |  |  |  |  |  |  |  |  | 
Nc1ccn(C2OC(CO)C(O)C2(F)F)c(=O)n1 (stereo not drawn) [GEM, 4-amino-1-[3,3-difluoro-4-hydroxy-5-(hydroxymethyl)tetrahydrofuran-2-yl]-1H-pyrimidin-2-one] | more sensitive | significantly increased | did not alter | did not alter | significantly increased | strikingly hypersensitive | increased apoptosis | selective enrichment in the S-phase | 4.48 | 7.34 | 5.04 | 3.36 | 5 | 619
